From article PMC6149898, “GPCR Modulation of Thieno[2,3-b]pyridine Anti-Proliferative Agents” (Molecules : A Journal of Synthetic Chemistry and Natural …, 2017)

Assays:
[1] = target: GALR2 (Homo sapiens, UniProt O43603); assay: gpcrMAX PathHunter beta-arrestin
[2] = target: PTAFR (Homo sapiens, UniProt P25105); assay: gpcrMAX PathHunter beta-arrestin
[3] = target: HRH3 (Homo sapiens, UniProt Q9Y5N1); assay: gpcrMAX PathHunter beta-arrestin
[4] = tested on: CO:HCT-15; set-up: method as in earlier work; conditions: NCI-60 panel; ref [4],[5],[6],[7]; cited from earlier work
[5] = target: NPBWR2 (Homo sapiens, UniProt P48146); assay: gpcrMAX PathHunter beta-arrestin
Sequence of NPBWR2 (P48146 whole entry): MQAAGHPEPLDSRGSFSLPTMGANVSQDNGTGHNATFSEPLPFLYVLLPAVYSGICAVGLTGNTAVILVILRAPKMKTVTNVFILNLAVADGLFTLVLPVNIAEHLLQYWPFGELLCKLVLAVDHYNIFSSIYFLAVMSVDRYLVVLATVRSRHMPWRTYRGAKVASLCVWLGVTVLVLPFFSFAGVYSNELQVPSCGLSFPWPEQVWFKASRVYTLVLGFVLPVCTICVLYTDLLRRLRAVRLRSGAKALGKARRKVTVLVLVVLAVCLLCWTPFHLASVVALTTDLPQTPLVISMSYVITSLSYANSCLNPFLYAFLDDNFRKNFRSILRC

[6] = tested on: CNS:SF-539; set-up: method as in earlier work; conditions: NCI-60 panel; ref [4],[5],[6],[7]; cited from earlier work
[7] = tested on: CO:HCC-2998; set-up: method as in earlier work; conditions: NCI-60 panel; ref [4],[5],[6],[7]; cited from earlier work
[8] = target: P2RY11 (Homo sapiens, UniProt Q96G91); assay: gpcrMAX PathHunter beta-arrestin
Sequence of P2RY11 (Q96G91 whole entry, one chain of several): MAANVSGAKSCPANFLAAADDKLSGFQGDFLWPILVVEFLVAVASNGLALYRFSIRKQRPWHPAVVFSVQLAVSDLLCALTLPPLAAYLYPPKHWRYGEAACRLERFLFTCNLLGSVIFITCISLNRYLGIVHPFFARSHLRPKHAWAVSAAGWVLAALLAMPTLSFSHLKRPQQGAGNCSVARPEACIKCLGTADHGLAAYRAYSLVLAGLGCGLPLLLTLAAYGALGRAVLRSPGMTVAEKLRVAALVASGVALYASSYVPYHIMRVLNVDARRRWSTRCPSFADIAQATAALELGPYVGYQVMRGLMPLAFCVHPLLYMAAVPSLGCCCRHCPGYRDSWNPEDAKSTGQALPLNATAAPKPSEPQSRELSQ

[9] = target: PTGER4 (Homo sapiens, UniProt P35408); assay: gpcrMAX PathHunter beta-arrestin
[10] = target: GHSR (Homo sapiens, UniProt Q92847); assay: gpcrMAX PathHunter beta-arrestin
[11] = tested on: RE:A498; set-up: method as in earlier work; conditions: NCI-60 panel; ref [4],[5],[6],[7]; cited from earlier work
[12] = tested on: CO:COLO 205; set-up: method as in earlier work; conditions: NCI-60 panel; ref [4],[5],[6],[7]; cited from earlier work
[13] = target: CXCR1 (Homo sapiens, UniProt P25024); assay: gpcrMAX PathHunter beta-arrestin
Sequence of CXCR1 (P25024 whole entry): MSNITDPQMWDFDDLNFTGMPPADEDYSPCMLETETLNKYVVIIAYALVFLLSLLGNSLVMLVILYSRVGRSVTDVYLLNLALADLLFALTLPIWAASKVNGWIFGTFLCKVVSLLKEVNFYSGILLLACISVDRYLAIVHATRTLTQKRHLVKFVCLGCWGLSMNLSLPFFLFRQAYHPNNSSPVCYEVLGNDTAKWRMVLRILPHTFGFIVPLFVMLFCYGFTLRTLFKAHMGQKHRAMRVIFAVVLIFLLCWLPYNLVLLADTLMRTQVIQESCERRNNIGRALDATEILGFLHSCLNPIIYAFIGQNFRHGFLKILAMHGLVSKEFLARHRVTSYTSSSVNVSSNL

[14] = target: EDG7 (Homo sapiens, UniProt Q9UBY5); assay: gpcrMAX PathHunter beta-arrestin
Sequence of EDG7 (Q9UBY5 whole entry): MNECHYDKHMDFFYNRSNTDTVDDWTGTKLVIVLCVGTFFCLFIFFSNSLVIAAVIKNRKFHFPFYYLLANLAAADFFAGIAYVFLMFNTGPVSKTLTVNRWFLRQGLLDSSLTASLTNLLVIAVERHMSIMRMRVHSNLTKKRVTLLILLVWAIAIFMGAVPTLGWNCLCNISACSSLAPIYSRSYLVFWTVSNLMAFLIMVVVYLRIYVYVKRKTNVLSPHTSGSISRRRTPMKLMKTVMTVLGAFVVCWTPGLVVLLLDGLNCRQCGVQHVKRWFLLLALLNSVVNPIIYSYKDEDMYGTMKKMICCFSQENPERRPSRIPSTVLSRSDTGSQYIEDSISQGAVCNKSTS

[15] = target: GPR109B (Homo sapiens, UniProt P49019); assay: gpcrMAX PathHunter beta-arrestin
Sequence of GPR109B (P49019 whole entry): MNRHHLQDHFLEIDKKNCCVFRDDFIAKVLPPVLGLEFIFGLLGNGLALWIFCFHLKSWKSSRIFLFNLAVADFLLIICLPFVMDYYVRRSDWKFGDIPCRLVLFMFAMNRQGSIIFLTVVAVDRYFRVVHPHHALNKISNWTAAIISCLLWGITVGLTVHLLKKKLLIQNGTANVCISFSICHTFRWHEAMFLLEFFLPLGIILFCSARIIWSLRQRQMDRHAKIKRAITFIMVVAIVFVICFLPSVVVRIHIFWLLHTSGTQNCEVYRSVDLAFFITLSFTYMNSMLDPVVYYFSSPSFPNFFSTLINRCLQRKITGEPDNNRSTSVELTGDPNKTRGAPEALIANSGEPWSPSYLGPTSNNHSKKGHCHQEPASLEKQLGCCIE

[16] = target: ADRA2B (Homo sapiens, UniProt P18089); assay: gpcrMAX PathHunter beta-arrestin
Sequence of ADRA2B (P18089 whole entry): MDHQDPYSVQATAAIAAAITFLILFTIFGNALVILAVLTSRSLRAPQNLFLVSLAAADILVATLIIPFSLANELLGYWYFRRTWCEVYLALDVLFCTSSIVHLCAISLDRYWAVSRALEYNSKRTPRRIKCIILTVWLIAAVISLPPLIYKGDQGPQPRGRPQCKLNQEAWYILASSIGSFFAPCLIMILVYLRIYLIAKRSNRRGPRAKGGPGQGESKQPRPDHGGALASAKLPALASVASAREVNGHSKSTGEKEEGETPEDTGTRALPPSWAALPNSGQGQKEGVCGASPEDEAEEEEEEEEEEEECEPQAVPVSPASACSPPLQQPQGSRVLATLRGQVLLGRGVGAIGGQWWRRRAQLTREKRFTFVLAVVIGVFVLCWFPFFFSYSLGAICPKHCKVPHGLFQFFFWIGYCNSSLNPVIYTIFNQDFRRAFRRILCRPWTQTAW

[17] = target: PTHR2 (Homo sapiens, UniProt P49190); assay: gpcrMAX PathHunter beta-arrestin
Sequence of PTHR2 (P49190 25-550): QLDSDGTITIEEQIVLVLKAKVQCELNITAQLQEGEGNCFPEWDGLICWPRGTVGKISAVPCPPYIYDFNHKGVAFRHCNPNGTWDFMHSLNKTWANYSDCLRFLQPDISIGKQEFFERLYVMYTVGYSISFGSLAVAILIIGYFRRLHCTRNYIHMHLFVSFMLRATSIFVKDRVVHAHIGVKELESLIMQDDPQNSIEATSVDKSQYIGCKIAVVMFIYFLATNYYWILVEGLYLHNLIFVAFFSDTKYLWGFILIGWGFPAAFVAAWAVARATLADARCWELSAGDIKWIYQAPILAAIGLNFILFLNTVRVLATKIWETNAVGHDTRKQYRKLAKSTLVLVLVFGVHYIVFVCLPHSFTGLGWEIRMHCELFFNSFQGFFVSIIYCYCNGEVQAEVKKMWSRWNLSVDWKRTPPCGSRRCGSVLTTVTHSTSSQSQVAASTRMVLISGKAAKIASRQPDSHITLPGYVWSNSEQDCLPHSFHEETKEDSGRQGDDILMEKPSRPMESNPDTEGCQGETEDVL

[18] = tested on: OV:OVCAR-5; set-up: method as in earlier work; conditions: NCI-60 panel; ref [4],[5],[6],[7]; cited from earlier work
[19] = tested on: LC:NCI-H460; set-up: method as in earlier work; conditions: NCI-60 panel; ref [4],[5],[6],[7]; cited from earlier work
[20] = tested on: CNS:SF-295; set-up: method as in earlier work; conditions: NCI-60 panel; ref [4],[5],[6],[7]; cited from earlier work
[21] = tested on: LE:SR; set-up: method as in earlier work; conditions: NCI-60 panel; ref [4],[5],[6],[7]; cited from earlier work
[22] = target: CXCR5 (Homo sapiens, UniProt P32302); assay: gpcrMAX PathHunter beta-arrestin
[23] = target: NPY2R (Homo sapiens, UniProt P49146); assay: gpcrMAX PathHunter beta-arrestin
Sequence of NPY2R (P49146 whole entry): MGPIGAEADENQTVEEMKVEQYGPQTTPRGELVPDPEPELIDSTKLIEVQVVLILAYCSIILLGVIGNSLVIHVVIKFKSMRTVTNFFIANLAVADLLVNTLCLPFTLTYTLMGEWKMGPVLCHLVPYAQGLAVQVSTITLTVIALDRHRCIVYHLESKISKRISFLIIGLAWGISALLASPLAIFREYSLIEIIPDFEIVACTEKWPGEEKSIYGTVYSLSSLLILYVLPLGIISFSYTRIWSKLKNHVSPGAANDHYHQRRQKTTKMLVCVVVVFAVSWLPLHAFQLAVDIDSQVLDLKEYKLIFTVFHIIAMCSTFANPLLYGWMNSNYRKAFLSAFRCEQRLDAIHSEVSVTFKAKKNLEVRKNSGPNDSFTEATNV

[24] = tested on: LC:NCI-H322M; set-up: method as in earlier work; conditions: NCI-60 panel; ref [4],[5],[6],[7]; cited from earlier work
[25] = target: CALCR-RAMP2 (Homo sapiens, UniProt O60895+P30988); assay: gpcrMAX PathHunter beta-arrestin
Sequence of CALCR-RAMP2 (P30988 25-474): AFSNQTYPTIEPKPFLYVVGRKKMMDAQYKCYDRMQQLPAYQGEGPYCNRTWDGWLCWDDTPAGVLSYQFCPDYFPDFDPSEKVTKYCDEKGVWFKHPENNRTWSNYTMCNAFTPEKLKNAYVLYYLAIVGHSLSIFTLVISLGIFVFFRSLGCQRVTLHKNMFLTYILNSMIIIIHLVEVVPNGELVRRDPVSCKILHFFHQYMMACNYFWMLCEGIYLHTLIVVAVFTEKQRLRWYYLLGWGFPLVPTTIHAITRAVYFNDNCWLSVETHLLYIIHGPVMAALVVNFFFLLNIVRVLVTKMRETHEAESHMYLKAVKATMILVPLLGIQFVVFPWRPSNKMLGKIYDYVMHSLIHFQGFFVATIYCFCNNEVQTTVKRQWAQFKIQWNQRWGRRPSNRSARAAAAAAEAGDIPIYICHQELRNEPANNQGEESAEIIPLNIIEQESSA
Sequence of CALCR-RAMP2 (O60895 43-175 partner): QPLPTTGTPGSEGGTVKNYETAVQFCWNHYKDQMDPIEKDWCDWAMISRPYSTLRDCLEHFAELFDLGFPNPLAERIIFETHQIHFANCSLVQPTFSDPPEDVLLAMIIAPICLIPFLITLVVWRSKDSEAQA

[26] = target: HRH2 (Homo sapiens, UniProt P25021); assay: gpcrMAX PathHunter beta-arrestin
Sequence of HRH2 (P25021 whole entry): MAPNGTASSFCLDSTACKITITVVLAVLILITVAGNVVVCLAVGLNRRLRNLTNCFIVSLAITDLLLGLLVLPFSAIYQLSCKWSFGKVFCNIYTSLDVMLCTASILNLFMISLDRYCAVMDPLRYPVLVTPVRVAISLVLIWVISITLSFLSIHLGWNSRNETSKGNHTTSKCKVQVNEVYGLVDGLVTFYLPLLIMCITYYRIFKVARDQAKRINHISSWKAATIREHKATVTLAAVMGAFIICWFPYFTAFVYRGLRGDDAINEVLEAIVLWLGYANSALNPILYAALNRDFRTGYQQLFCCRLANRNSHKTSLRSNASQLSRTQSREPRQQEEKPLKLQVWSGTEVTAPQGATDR

Sequence of PTAFR (P25105 whole entry): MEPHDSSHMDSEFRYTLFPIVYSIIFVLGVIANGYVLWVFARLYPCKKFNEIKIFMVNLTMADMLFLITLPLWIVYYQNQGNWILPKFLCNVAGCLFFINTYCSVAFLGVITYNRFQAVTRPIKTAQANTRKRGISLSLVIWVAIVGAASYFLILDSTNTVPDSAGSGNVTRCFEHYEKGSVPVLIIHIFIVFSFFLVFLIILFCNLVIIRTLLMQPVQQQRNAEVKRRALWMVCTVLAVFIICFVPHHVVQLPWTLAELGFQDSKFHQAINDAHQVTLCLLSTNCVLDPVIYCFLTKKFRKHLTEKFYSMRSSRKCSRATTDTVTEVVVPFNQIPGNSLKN
Sequence of GALR2 (O43603 whole entry): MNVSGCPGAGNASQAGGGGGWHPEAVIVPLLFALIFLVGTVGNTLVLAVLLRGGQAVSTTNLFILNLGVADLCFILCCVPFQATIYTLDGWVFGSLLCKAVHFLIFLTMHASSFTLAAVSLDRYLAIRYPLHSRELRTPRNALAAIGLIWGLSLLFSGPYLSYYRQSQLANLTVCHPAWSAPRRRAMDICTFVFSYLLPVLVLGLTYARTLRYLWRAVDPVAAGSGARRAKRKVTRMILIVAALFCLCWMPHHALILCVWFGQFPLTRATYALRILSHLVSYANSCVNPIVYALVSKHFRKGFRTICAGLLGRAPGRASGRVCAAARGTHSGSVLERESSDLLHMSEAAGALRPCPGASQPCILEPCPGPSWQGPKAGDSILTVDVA

Cc1c(Cl)cccc1NC(=O)c1sc2nc3c(cc2c1N)C(=O)CCC3 [Compound 1]
inhibition at 10 µM [1]: -5% | inhibition at 10 µM [2]: 2% | inhibition at 10 µM [3]: -14% | GI50 [4]: 70.5 nM | inhibition at 10 µM [5]: -5% | GI50 [6]: 38.2 nM | GI50 [7]: 213 nM | inhibition at 10 µM [8]: -6% | inhibition at 10 µM [9]: 7% | inhibition at 10 µM [10]: -2% | GI50 [11]: 23.2 nM | GI50 [12]: 51.8 nM | inhibition at 10 µM [13]: 2% | inhibition at 10 µM [14]: -8% | inhibition at 10 µM [15]: 7% | inhibition at 10 µM [16]: -9% | inhibition at 10 µM [17]: 7% | GI50 [18]: 308 nM | GI50 [19]: 40.8 nM | GI50 [20]: 36.5 nM | GI50 [21]: 74.2 nM | inhibition at 10 µM [22]: 0% | inhibition at 10 µM [23]: -9% | GI50 [24]: 306 nM | inhibition at 10 µM [25]: 0% | inhibition at 10 µM [26]: 10%
